This is an account of results in ChEMBL document CHEMBL2375345, “New antiprotozoal agents: their synthesis and biological evaluations” (Bioorg Med Chem Lett, 2013).

Data set [1] can be described thus: Selectivity index, ratio of CC50 for human MRC5 cells to IC50 for amastigote form of Leishmania infantum MHOM/MA(BE)/67. Format: functional.
Data set [2] is described as follows: Selectivity index, ratio of CC50 for human MRC5 cells to IC50 for trypomastigote form of Trypanosoma brucei rhodesiense STIB900. Format: functional.
Data set [3] in a line: Selectivity index, ratio of CC50 for human MRC5 cells to IC50 for trypomastigote form of Trypanosoma brucei brucei 427. Format: functional.
The nature of data set [4]: Selectivity index, ratio of CC50 for human MRC5 cells to IC50 for epimastigote form of Trypanosoma cruzi Tulahuen 2. Format: functional.
Data set [5] is described as follows: Cytotoxicity against human MRC5 cells assessed as cell viability after 7 days by Alamar blue assay. Format: cell-based.
Data set [6] deals with Leishmania infantum. In words: Antiprotozoal activity against amastigote form of Leishmania infantum MHOM/MA(BE)/67 infected in mouse peritoneal macrophages assessed as reduction of intracellular parasite burden after 5 days by Giemsa staining method. Format: functional, organism-based. As to conditions: MHOM/MA(BE)/67, 120 h.
For data set [7], the system named is Trypanosoma cruzi. In words: Antiprotozoal activity against epimastigote form of Trypanosoma cruzi Tulahuen 2 assessed as parasite growth inhibition measured at day 5. Format: functional, organism-based. Conditions: Tulahuen 2, 120 h.
Data set [8] concerns Trypanosoma brucei brucei. In words: Antiprotozoal activity against trypomastigote form of Trypanosoma brucei brucei 427 assessed as parasite growth inhibition. Format: functional, organism-based.
For data set [9], the system named is Trypanosoma brucei rhodesiense. In words: Antiprotozoal activity against trypomastigote form of Trypanosoma brucei rhodesiense STIB900 assessed as parasite growth inhibition after 72 hrs by Alamar blue assay. Format: functional, organism-based. Conditions: STIB900, 72 h. For orientation: The colour change of resazurin is a common sign of viable cells or microbes.

A short description of data set [10]: Lipophilicity, log P of the compound. Conditions: octanol/water. Format: physicochemical.

In general, CC50 refers to the concentration at which the toxic effect on the cells reaches its halfway point. The term IC50 denotes the concentration that gives 50% inhibition. On to `CC(C)(C)OC(=O)NCC(=O)O/N=C1\c2ccccc2-c2c1c(N1CCN(c3ccccn3)CC1)nc1ccc(Br)cc21`, for which the “Ratio CC50/IC50” value came to 12.6 in data set [1], 53.33 in data set [2], 10.58 in [3] and 9.38 in [4]. Also, in data set [5], the CC50 at 168 h came to 64 µM. Besides, the IC50 in data set [6] is 5.08 µM; in data set [7], 6.82 µM; in data set [8], 6.05 µM; in data set [9] it was 1.2 µM.

`CCCC(=O)O/N=C1\c2ccccc2-c2c1c(-n1ccnc1)nc1ccc(Br)cc21`: the “Ratio CC50/IC50” value worked out at 1.37 in [1], 1.6 in data set [2], 1 in data set [3] and 3.45 in data set [4]. Further, the CC50 at 168 h in data set [5] is 8.23 µM. Besides, the IC50 stood at 6.01 µM in [6], 2.38 µM in [7], 8.17 µM in [8] and 5.14 µM in [9].

As for `CC(NC(=O)OC(C)(C)C)C(=O)O/N=C1\c2ccccc2-c2c1c(N1CCN(c3ccccn3)CC1)nc1ccc(Br)cc21` (configuration not stated), the “Ratio CC50/IC50” value was found to be 3.86 in data set [1], 16.3 in data set [2], 13.19 in data set [3] and 4.33 in data set [4]. Further, the CC50 at 168 h in [5] turned out to be 26.9 µM. The IC50 was 6.96 µM in [6], 6.21 µM in data set [7], 2.04 µM in data set [8] and 1.65 µM in data set [9].

For `CC(C)(C)OC(=O)NC(C(=O)O/N=C1\c2ccccc2-c2c1c(N1CCN(c3ccccn3)CC1)nc1ccc(Br)cc21)C(C)(C)C` (configuration not stated), the “Ratio CC50/IC50” value worked out at 6.29 in data set [1], 26.17 in [2], 16.48 in data set [3] and 4.52 in [4]. Also, the CC50 at 168 h in data set [5] is 35.6 µM. In addition, the IC50 in [6] amounted to 5.66 µM; in [7], 7.87 µM; in data set [8] it was 2.16 µM; in [9], 1.36 µM.

For the compound `CSCCC(NC(=O)OC(C)(C)C)C(=O)O/N=C1\c2ccccc2-c2c1c(N1CCN(c3ccccn3)CC1)nc1ccc(Br)cc21` (configuration not stated), the “Ratio CC50/IC50” value in [1] amounted to 6.73; in [2], 44.44; in data set [3], 26.66; in data set [4] it was 8.66. Besides, in [5], the CC50 at 168 h turned out to be 64 µM. For the same compound, the IC50 in [6] amounted to 9.51 µM; in [7] it was 7.39 µM; in data set [8], 2.4 µM; in data set [9], 1.44 µM.

For `CC(C)(C)OC(=O)N1CCCC1C(=O)O/N=C1\c2ccccc2-c2c1c(-n1ccnc1)nc1ccc(Br)cc21` (configuration not stated), the “Ratio CC50/IC50” value is 0.63 in data set [1], 1.85 in data set [2], 1.09 in data set [3] and 1.08 in data set [4]. The CC50 at 168 h in data set [5] came out at 8 µM. Besides, the IC50 was 12.7 µM in data set [6], 7.38 µM in [7], 7.31 µM in [8] and 4.33 µM in data set [9].

What is called logP is a log measure of how a compound divides between an organic and an aqueous phase. Low readings indicate a more hydrophilic compound, high ones a more lipophilic compound. For the compound `CC(O)c1cc(F)ccc1Oc1nc2ccc(NS(=O)(=O)c3cccc(C(F)(F)F)c3)cc2cc1Cc1ccccc1` (configuration not stated), the logP in [10] was 7.69. Also, the CC50 at 168 h in [5] was determined as 8 µM. Moreover, the IC50 in [6] was 8.11 µM; in data set [7] it was 3.7 µM; in data set [8] it was 2.18 µM; in [9], 1.46 µM.

Take `O=[N+]([O-])c1ccc2nc(Oc3ccc(F)cc3C(O)CN3CCCCC3)c(Cc3ccccc3)cc2c1` (configuration not stated): the “Ratio CC50/IC50” value is 1.29 in data set [1], 8.8 in [2], 4.31 in [3] and 2.2 in data set [4]. Besides, the IC50 was determined as 2.16 µM in data set [6], 2 µM in [7], 2.01 µM in [8] and 1.22 µM in data set [9].

Consider `COc1cccc(N2CCN(CC(O)COC3(C)c4ccccc4-c4c3c(N3CCN(C(c5ccccc5)c5ccccc5)CC3)nc3ccc(Br)cc43)CC2)c1` (configuration not stated), for which the “Ratio CC50/IC50” value is 2.04 in [1], 71.44 in [2], 30.26 in data set [3] and 0.96 in [4]. Besides, the CC50 at 168 h in [5] came out at 61.4 µM. The IC50 in data set [6] was 30.1 µM; in data set [7] it was 64 µM; in data set [8], 2.03 µM; in [9], 0.86 µM.

For `CC(C)(C)OC(=O)N1CCCC(C(=O)O/N=C2\c3ccccc3-c3c2c(C(F)(F)F)nc2ccc(Br)cc32)C1` (configuration not stated), the “Ratio CC50/IC50” value in data set [1] was 0.72; in data set [2] it was 1.91; in data set [3], 0.77; in [4], 0.47. The CC50 at 168 h in data set [5] was determined as 5.84 µM. In addition, the IC50 in data set [6] was determined as 8.11 µM; in data set [7], 12.3 µM; in [8], 7.56 µM; in [9], 3.06 µM.

Consider `COc1nc2ccc(Br)cc2cc1C(c1ccccc1)n1cnc([N+](=O)[O-])c1` (configuration not stated), for which the “Ratio CC50/IC50” value in [1] was 1.25; in [2], 145.45; in data set [3], 29.62; in [4], 9.19. The CC50 at 168 h in [5] is 64 µM. Besides, the IC50 in data set [6] was found to be 50.8 µM; in data set [7], 6.96 µM; in [8], 2.16 µM; in [9], 0.44 µM.

For the compound `COc1cccc(-c2ccn(CC(O)c3cc(F)ccc3Oc3nc4ccc([N+](=O)[O-])cc4cc3Cc3ccccc3)n2)c1` (configuration not stated), the Ratio CC50/IC50 in data set [2] worked out at 30.8. Also, the CC50 at 168 h in [5] was determined as 64 µM. Besides, the IC50 in data set [6] is 8 µM; in [7], 6.01 µM; in [8] it was 2.4 µM; in data set [9] it was 2.08 µM.

Turning to `COc1ccc(-c2ccn(CC(O)c3cc(F)ccc3Oc3nc4ccc([N+](=O)[O-])cc4cc3Cc3ccccc3)n2)cc1` (configuration not stated), the “Ratio CC50/IC50” value came out at 3.15 in [1], 31.52 in data set [2], 31.37 in data set [3] and 33.16 in data set [4]. The IC50 worked out at 20.3 µM in data set [6], 64 µM in [7], 2.12 µM in data set [8] and 0.71 µM in [9].

For the compound `CC(c1cc(F)ccc1Oc1nc2ccc(-n3cc(-c4ccccc4)nn3)cc2cc1Cc1ccccc1)n1ccnc1` (configuration not stated), the “Ratio CC50/IC50” value in [1] is recorded as 3.15; in data set [3], 30.18. This compound returned a logP in data set [10] of 7.91. Also, the CC50 at 168 h in data set [5] turned out to be 64 µM. Moreover, the IC50 in data set [6] is 20.3 µM; in data set [7] it was 1.93 µM; in data set [8], 2.04 µM; in data set [9] it was 2.03 µM.

In the case of `COc1cccc(NC(=O)Nc2ccc3nc(Oc4ccc(F)cc4C(C)O)c(Cc4ccccc4)cc3c2)c1` (configuration not stated), the “Ratio CC50/IC50” value in data set [2] is 30.18. For the same compound, in data set [10], the logP is 6.72. Besides, the CC50 at 168 h in data set [5] was 64 µM. The IC50 in data set [6] is 8.11 µM; in [7] it was 6.23 µM; in data set [8], 2.04 µM; in data set [9] it was 2.07 µM.

Consider `COc1ccccc1NC(=S)Nc1ccc2nc(Oc3ccc(F)cc3C(C)O)c(Cc3ccccc3)cc2c1` (configuration not stated), for which the “Ratio CC50/IC50” value in data set [1] is listed as 5.22; in data set [2], 32.31. Also, the logP in [10] was found to be 7.86. Also, the CC50 at 168 h in data set [5] amounted to 16 µM. For the same compound, the IC50 in [6] was 5.28 µM; in [7], 4.33 µM; in [8] it was 1.79 µM; in data set [9] it was 0.53 µM.
